The test addresses T1, TLR8 (Homo sapiens, UniProt Q9NR97).
T1 sequence (Q9NR97 27-1041): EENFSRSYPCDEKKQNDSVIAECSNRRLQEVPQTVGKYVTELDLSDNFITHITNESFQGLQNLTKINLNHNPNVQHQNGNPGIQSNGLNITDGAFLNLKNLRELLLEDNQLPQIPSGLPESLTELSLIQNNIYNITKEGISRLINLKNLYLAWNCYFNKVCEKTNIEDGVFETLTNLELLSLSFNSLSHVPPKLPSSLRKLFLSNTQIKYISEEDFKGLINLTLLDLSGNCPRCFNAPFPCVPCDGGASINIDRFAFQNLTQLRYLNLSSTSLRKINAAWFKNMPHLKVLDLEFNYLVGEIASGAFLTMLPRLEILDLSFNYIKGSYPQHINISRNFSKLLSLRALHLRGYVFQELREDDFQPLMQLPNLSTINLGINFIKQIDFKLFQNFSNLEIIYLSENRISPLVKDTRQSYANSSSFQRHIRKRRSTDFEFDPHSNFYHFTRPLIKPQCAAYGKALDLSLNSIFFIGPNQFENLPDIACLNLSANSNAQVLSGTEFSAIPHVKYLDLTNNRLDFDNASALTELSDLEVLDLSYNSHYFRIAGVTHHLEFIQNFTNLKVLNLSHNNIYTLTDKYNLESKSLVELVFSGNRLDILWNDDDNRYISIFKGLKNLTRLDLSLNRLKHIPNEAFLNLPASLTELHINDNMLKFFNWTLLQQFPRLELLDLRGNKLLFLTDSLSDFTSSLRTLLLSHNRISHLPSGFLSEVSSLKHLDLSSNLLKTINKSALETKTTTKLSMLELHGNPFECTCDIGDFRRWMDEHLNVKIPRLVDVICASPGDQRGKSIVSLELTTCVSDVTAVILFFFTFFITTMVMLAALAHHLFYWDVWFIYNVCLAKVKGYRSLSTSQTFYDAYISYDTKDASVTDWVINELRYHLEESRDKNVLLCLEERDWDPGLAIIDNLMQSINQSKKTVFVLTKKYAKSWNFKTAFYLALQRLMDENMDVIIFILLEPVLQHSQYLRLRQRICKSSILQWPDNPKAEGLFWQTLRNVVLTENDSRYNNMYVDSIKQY
Briefly: Dose dependent TLR8-mediated NF-κB-luciferase response in HEK293 cells transfected with TLR8 (Example 5). It counts as cell-based. Also noted: expressed in transfected cells; host or cells: HEK293 (ATCC CRL-1573), pIRES vector, G-418 selected, co-transfected with NFkB-luc reporter. How it is done:
Twenty-four hours before transfection, HEK293 cells were adhered to a 10 cm dish (Corning 430167, Corning Inc., Corning, N.Y.) at 37° C., 8% CO2. The cells were co-transfected with (1) pIRES (BD Biosciences Clontech, Palo Alto, Calif.) either (a) unmodified (HEK293-vector) or (b) containing human TLR8 (HEK293-TLR8), and (2) NFkB-luc reporter (Stratagene, La Jolla, Calif.) in a 10:1 ratio with Fugene 6 transfection reagent (Roche Diagnostics Corp., Indianapolis, Ind.) following the manufacturer's instructions. The plates were incubated for 24 hours following transfection and then selected in G-418 (400 μg/mL) for two weeks. The G-418-resistant cells containing either the TLR8 or empty vector were expanded in HEK293 media supplemented with G-418 for stimulation experiments.
The transfected cells were plated in white opaque 96 well plates (Costar 3917, Corning Inc., Corning, N.Y.) at a concentration of 5×10^4 cells per well in 100 μL of HEK293 media and incubated at 37° C., 8% CO2 for 4 hours. The cells were stimulated with 1 μL of IRM compounds at 1 mM in DMSO (final IRM concentration of 10 μM) or 1 μL DMSO as a control. The plates were then incubated an additional 16 hours at 37° C., 5% CO2. Luminescence was measured on an LMAX luminometer (Molecular Devices Corp., Sunnyvale, Calif.).
HEK293 cells were transfected as described in Example 1. HEK293 cultures were incubated with IRM compound or a negative control compound (1,5-dihydro-1-(2-methylpropyl)-4H-imidazo[4,5-c]quinolin-4-one, U.S. Pat. No. 4,698,348, Example 71) at concentrations of 0.1 μM, 0.3 μM, 1.0 μM, 3.0 μM, 10 μM, or 30 μM, or a vehicle control. Cultures were otherwise incubated as described in Example 1. Luciferase signals were read in RLU (Relative Luciferase Units) as described in Example 1.

Turning to `COCCc1nc2c(N)nc3cc(-c4cccc(NS(C)(=O)=O)c4)ccc3c2n1CC(C)(C)O` [IRM50, N-{3-[4-amino-1-(2-hydroxy-2-methylpropyl)-2-(methoxyethyl)-1H-imidazo[4,5-c]quinolin-7-yl]phenyl}methanesulfonamide], the “Fold increase over vehicle” value was 1.8 fold (0.1 μM); 2.1 fold (0.3 μM); 2.2 fold (1.0 μM); 4.1 fold (3.0 μM); 11.7 fold (10 μM); 21.1 fold (30 μM).
With `CCOCc1nc2c(N)nc3cc(-c4cccnc4)ccc3c2n1CC(C)(C)O` [IRM51, 1-[4-amino-2-(ethoxymethyl)-7-(pyridin-3-yl)-1H-imidazo[4,5-c]quinolin-1-yl]-2-methylpropan-2-ol], the “Fold increase over vehicle” value was 1.9 fold (0.1 μM); 3.8 fold (0.3 μM); 11.9 fold (1.0 μM); 15.0 fold (3.0 μM); 21.5 fold (10 μM); 22.4 fold (30 μM).
Take `CCOCc1nc2c(N)nc3cc(-c4cncc(CO)c4)ccc3c2n1CC(C)(C)O` [IRM52, 1-{4-amino-2-(ethoxymethyl)-7-[5-(hydroxymethyl)pyridin-3-yl]-1H-imidazo[4,5-c]quinolin-1-yl}-2-methylpropan-2-ol]: the “Fold increase over vehicle” value is on record as 1.2 fold (0.1 μM); 2.1 fold (0.3 μM); 4.1 fold (1.0 μM); 5.8 fold (3.0 μM); 7.8 fold (10 μM); 9.3 fold (30 μM).
As to `CCOCc1nc2c(N)nc3cc(-c4ccc(CO)cc4)ccc3c2n1CC1COC(C)(C)O1` (stereo not drawn) [IRM53, 1-[(2,2-dimethyl-1,3-dioxolan-4-yl)methyl]-2-(ethoxymethyl)-7-(4-hydroxymethylphenyl)-1H-imidazo[4,5-c]quinolin-4-amine], the “Fold increase over vehicle” value is, setting by setting: (0.1 μM) 0.9 fold; (0.3 μM) 1.0 fold; (1.0 μM) 1.4 fold; (3.0 μM) 2.0 fold; (10 μM) 3.6 fold; (30 μM) 7.7 fold.
For the molecule `CCOCc1nc2c(N)nc3ccccc3c2n1CC(C)(C)NC(=O)NC1CCCC1` [IRM54, 1-[2-(4-amino-2-ethoxymethyl-1H-imidazo[4,5-c]quinolin-1-yl)-1,1-dimethylethyl]-3-cyclopentylurea], the “Fold increase over vehicle” value is, setting by setting: (0.1 μM) 0.9 fold; (0.3 μM) 0.9 fold; (1.0 μM) 1.2 fold; (3.0 μM) 2.6 fold; (10 μM) 5.9 fold; (30 μM) 9.2 fold.
As to `CCCNC(=O)NC(C)(C)Cn1c(COCC)nc2c(N)nc3ccccc3c21` [IRM55, 1-[2-(4-amino-2-ethoxymethyl-1H-imidazo[4,5-c]quinolin-1-yl)-1,1-dimethylethyl]-3-propylurea], the “Fold increase over vehicle” value amounted to 0.7 fold (0.1 μM); 1.1 fold (0.3 μM); 1.0 fold (1.0 μM); 2.9 fold (3.0 μM); 7.2 fold (10 μM); 9.9 fold (30 μM).
As for `CCOCc1nc2c(N)nc3cc(-c4ccncc4)ccc3c2n1CC(C)(C)O` [IRM56, 1-[4-amino-2-ethoxymethyl-7-(pyridin-4-yl)-1H-imidazo[4,5-c]quinolin-1-yl]-2-methylpropan-2-ol], the “Fold increase over vehicle” value amounted to 1.2 fold (0.1 μM); 1.8 fold (0.3 μM); 5.9 fold (1.0 μM); 10.0 fold (3.0 μM); 24.4 fold (10 μM); 27.9 fold (30 μM).
For `CCOCc1nc2c(N)nc3cc(-c4cccnc4)ccc3c2n1CC(O)CO` (stereo not drawn) [IRM57, 3-[4-amino-2-(ethoxymethyl)-7-(pyridin-3-yl)-1H-imidazo[4,5-c]quinolin-1-yl]propane-1,2-diol], the “Fold increase over vehicle” value (0.1 μM) was found to be 1.4 fold; the “Fold increase over vehicle” value (0.3 μM) was 1.7 fold; the “Fold increase over vehicle” value (1.0 μM) is on record as 3.1 fold; the “Fold increase over vehicle” value (3.0 μM) is given as 7.2 fold; the “Fold increase over vehicle” value (10 μM) turned out to be 10.4 fold; the “Fold increase over vehicle” value (30 μM) stood at 12.5 fold.
Regarding `CCOCc1nc2c(N)nc3cc(-c4cccc(C(=O)N5CCCC5)c4)ccc3c2n1CC(C)(C)O` [IRM58, {3-[4-amino-2-ethoxymethyl-1-(2-hydroxy-2-methylpropyl)-1H-imidazo[4,5-c]quinolin-7-yl]phenyl}pyrrolidin-1-ylmethanone], the “Fold increase over vehicle” value came out at 0.7 fold (0.1 μM); 0.8 fold (0.3 μM); 0.9 fold (1.0 μM); 3.2 fold (3.0 μM); 6.9 fold (10 μM); 7.8 fold (30 μM).
As for `CCc1nc2c(N)nc3cc(-c4ccncc4)ccc3c2n1CC(C)(C)O` [IRM59, 1-[4-amino-2-ethyl-7-(pyridin-4-yl)-1H-imidazo[4,5-c]quinolin-1-yl]-2-methylpropan-2-ol], the “Fold increase over vehicle” value by setting is: (0.1 μM) 1.0 fold; (0.3 μM) 1.3 fold; (1.0 μM) 2.1 fold; (3.0 μM) 5.5 fold; (10 μM) 9.5 fold; (30 μM) 9.8 fold.
`CCOCc1nc2c(N)nc3c(c2n1NC(C)C)CCCC3` [IRM60, 2-ethoxymethyl-N^1-isopropyl-6,7,8,9-tetrahydro-1H-imidazo[4,5-c]quinoline-1,4-diamine]: the “Fold increase over vehicle” value by setting is: (0.1 μM) 1.1 fold; (0.3 μM) 1.0 fold; (1.0 μM) 1.1 fold; (3.0 μM) 2.7 fold; (10 μM) 6.2 fold; (30 μM) 9.1 fold.
As to `CCOCc1nc2c(N)nc3cc(-c4ccc(C(=O)N(C)OC)cc4)ccc3c2n1CC(C)(C)O` [IRM61, 4-[4-amino-2-ethoxymethyl-1-(2-hydroxy-2-methylpropyl)-1H-imidazo[4,5-c]quinolin-7-yl]-N-methoxy-N-methylbenzamide], the “Fold increase over vehicle” value (0.1 μM) worked out at 1.0 fold; the “Fold increase over vehicle” value (0.3 μM) came out at 1.1 fold; the “Fold increase over vehicle” value (1.0 μM) was 2.9 fold; the “Fold increase over vehicle” value (3.0 μM) was 6.7 fold; the “Fold increase over vehicle” value (10 μM) is reported as 10.3 fold; the “Fold increase over vehicle” value (30 μM) amounted to 9.4 fold.

The values are drawn from US7375180B2, “Methods and compositions related to IRM compounds and Toll-like receptor 8” (3M Innovative Properties Company, priority 2003, dated 2008).
